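96-well plates; 48 h exposure; 5 concentrations. Endpoints by linear interpolation between flanking doses. Not reached: highest tested concentration assigned. TGI denotes the concentration required for complete inhibition of growth.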
Tests used:
KM20L2 colon = assay: growth of human tumour cells (NCI), 48 h
RXF-631 renal = assay: growth of human tumour cells (NCI), 48 h

Row | Structure (SMILES) | TGI (KM20L2 colon) [µM] | TGI (RXF-631 renal) [µM]
1 | N#Cc1nn(-c2ccc(Cl)cc2)c(N)c2c(=N)n3nc(-c4ccccc4)cc3nc12 | > 100 | –
2 | Cc1[nH]n(C(=O)c2ccccc2O)c(=O)c1/C=C1\C(=O)C=Cc2ccccc21 | 75.6 | –
3 | CC1OC(OP(=O)(OCc2ccccc2)OCc2ccccc2)C(OC(=O)c2ccccc2)C(OC(=O)c2ccccc2)C1I (stereo not drawn) | > 100 | –
4 | COc1cc(/C=C\c2ccc(SC)cc2)cc(OC)c1OC | 0.0448 | –
5 | Cc1c(Cl)cccc1NC(=O)C(=O)C1C(=O)NC(=O)NC1=O | > 100 | –
6 | CCC(=O)O[C@@H]1C2C(OC(C)=O)C34COC(C)([C@@H]3C3C(C[C@]3(C)OC(C)=O)[C@@H](OC(=O)c3ccccc3)C4=O)[C@H](OC(C)=O)[C@@]2(OC(C)=O)C[C@@H]1C (stereo partly drawn) | > 100 | > 100
7 | CCCCCCCCCCCCCC(=O)OCC1OC(OC)C(NC(=O)N(CCCl)N=O)C(O)C1O (stereo not drawn) | 52.2 | 53.9
8 | CC1(c2cccc(C3CCC4(C=CC3=O)OCCO4)c2)OCCO1 (stereo not drawn) | 16.8 | –
9 | O=Cc1cc(O)c(O)c(O)c1-c1c(C=O)cc(O)c(O)c1O | > 100 | –
10 | C[C@H](NC(=O)OC1C2C=CC(O)C1CC2)c1ccccc1 (stereo partly drawn) | > 100 | –
11 | CC(=O)OC(C)(C)C1CCC(C)(C(O)COc2ccc(CCNC(=O)c3ccccc3)cc2)O1 (stereo not drawn) | > 100 | –
12 | CC(=O)OC1COC(N2C(=O)C(=O)c3cc(Br)c([N+](=O)[O-])cc32)C(OC(C)=O)C1OC(C)=O (stereo not drawn) | > 100 | > 100
13 | CCOC(=O)[C@H]1Nc2ccc(O)cc2C2c3ccccc3CC21 (stereo partly drawn) | > 100 | > 100
14 | OC(Cn1cncn1)(Cn1cncn1)c1ccc(Cl)cc1Cl | > 100 | –
15 | Cn1cc(C(=O)C2CCCCC2)ccc1=O | > 100 | > 100
16 | C[Si](C)(C)C#C[I+]c1ccccc1 | > 100 | > 100
17 | C=C1C(=O)OC2C(C)C3C=CC(=O)[C@@]3(C)C(OC(=O)/C(C)=C/C)C1[C@@H]2OC(C)=O (stereo partly drawn) | 2.99 | –
